Patent publication EP1431280A1, “ARYL SULFAMATE DERIVATIVES” (Kyowa Hakko Kogyo Co., Ltd, priority 2001, dated 2003)

Each molecule was assayed against T1, recombinant human estrone sulfatase (Homo sapiens, UniProt P08842) (assay: Test for inhibition of estrone sulfatase (steroid sulfatase)). Details: 4-methylumbelliferyl sulfate 0.3 mmol/L, phosphate buffer pH 7.5, 37 °C, 1 hour, fluorescence of 4-methylumbelliferone; read-out: IC50, inhibitory activity against steroid sulfatase.
T1 construct: made in house; host or cells: Chinese Hamster Ovary (CHO) cells
T1 sequence (P08842 22-583): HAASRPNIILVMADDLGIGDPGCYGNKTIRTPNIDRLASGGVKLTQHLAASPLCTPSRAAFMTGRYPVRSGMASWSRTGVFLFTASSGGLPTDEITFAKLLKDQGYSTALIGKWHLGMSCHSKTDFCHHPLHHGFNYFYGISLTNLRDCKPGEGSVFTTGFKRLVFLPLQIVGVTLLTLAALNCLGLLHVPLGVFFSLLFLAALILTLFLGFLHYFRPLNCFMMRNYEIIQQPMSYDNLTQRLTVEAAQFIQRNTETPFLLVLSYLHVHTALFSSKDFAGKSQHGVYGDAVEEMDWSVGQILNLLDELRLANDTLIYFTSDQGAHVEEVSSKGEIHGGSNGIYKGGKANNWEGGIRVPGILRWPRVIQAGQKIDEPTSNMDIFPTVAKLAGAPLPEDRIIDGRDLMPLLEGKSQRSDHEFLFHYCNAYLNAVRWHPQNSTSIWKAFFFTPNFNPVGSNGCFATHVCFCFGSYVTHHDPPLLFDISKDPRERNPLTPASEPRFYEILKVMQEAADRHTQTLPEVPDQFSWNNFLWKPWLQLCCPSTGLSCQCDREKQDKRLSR
Assay type: biochemical
Description: 4-Methylumbelliferyl sulfate (final concentration 0.3 mmol/L), recombinant human estrone sulfatase (7.8 ng/well), and each solution of the test compound having each test concentrations (test compound was dissolved in 0.001 mL of DMSO) were added to a phosphate buffer (pH 7.5) (final volume 0.1 mL) containing 0.28 mol/L sucrose and 0.04 mol/L nicotinamide. An enzyme reaction was conducted at 37 °C for 1 hour. The human estrone sulfatase gene was introduced into Chinese Hamster Ovary (CHO) cells, and the recombinant human estrone sulfatase was expressed, then it was used after partial purification. After completing the enzyme reaction, 2 mol/L glycine-sodium hydroxide solution (pH 10.3) (0.13 mL) was added and stirred. Using a fluorescent plate reader (Cyto Fluor II), the fluorescent strength of the generated 4-methylumbelliferone was measured. The measurements were conducted in duplicate at the same time. The fluctuations within the assay were within 10%. An enzyme reaction without the presence of a test compound was conducted at the same time. The inhibitory activity against estrone sulfatase for each concentration of the test compounds was calculated using the following equation. • A: Amount of 4-methylumbelliferone when test compound is present • B: Amount of 4-methylumbelliferone when test compound is not present [formula]
The inhibitory activity against estrone sulfatase of the aryl sulfamate derivative can be expressed as the concentration (IC50) of aryl sulfamate derivative at which the estrone sulfatase activity in the presence of the aryl sulfamate derivative is half of that when no test compound is added.

Going from `CCCCCCCCCNC(=O)C(C#N)=C(CF)c1ccc(OS(N)(=O)=O)cc1` [Compound 19] to `CCCCCCCCCNC(=O)C(C#N)=C(CC)c1ccc(OS(N)(=O)=O)cc1` [Compound 17], the IC50 falls from 35 nM to 17 nM (2.1-fold).

`CCCCCCCCNC(=O)/C(C#N)=C(\C)c1ccc(OS(N)(=O)=O)cc1` [Compound 15] and `CCCCCCCNC(=O)C(C#N)=C(C)c1ccc(OS(N)(=O)=O)cc1` [Compound 16] cannot be ordered by IC50: less than 12 nM for the first, less than 12 nM for the second.

First: CCCCCCCCCNC(=O)C=C(C#N)c1ccc(OS(N)(=O)=O)cc1 [Compound 47]
Second: CCCCCCCCCNC(=O)C(C#N)=C(O)c1ccc(OS(N)(=O)=O)cc1 [Compound 22]
The IC50 of the first is higher: 44 nM for the first, less than 12 nM for the second. The second is the more potent here.

`CCCCCCCNC(=O)C(C#N)=Cc1ccc(OS(N)(=O)=O)cc1` [Compound 6] and `CCCCCCCCCNC(=O)C(C#N)=Cc1ccc(OS(N)(=O)=O)cc1` [Compound 5] are within 1.5-fold of each other in IC50: 12 nM for the first, 14 nM for the second.

Going from `CCCCCCCCCNC(=O)CC(=O)c1ccc(OS(N)(=O)=O)cc1` [Compound 58] to `CCCCCCCCCNC(=O)C#Cc1ccc(OS(N)(=O)=O)cc1` [Compound 57], the IC50 rises from 31 nM to 99 nM (3.2-fold).
